These compounds were tested against T1, human recombinant sEH (Homo sapiens, UniProt P34913) (assay: Fluorescence-based sEH activity assay (PHOME substrate), human enzyme).
T1 construct: purchased Cayman Chemical 10011671
T1 sequence (P34913 1-555): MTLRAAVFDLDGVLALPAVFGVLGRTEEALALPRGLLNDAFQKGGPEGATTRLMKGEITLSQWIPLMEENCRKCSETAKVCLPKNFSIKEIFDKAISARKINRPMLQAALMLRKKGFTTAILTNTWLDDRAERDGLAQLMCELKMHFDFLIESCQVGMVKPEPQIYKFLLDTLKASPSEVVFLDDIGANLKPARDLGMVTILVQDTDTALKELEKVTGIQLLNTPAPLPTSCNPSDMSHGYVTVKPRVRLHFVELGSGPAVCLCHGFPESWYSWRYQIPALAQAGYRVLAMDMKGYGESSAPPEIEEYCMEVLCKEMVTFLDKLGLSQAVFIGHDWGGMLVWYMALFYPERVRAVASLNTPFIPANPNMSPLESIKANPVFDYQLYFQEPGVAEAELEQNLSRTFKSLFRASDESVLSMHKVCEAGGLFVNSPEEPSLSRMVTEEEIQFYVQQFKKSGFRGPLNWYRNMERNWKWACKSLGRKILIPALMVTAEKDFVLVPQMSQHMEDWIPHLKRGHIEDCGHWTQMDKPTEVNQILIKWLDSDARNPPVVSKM
Format: biochemical
Procedure: A fluorescence-based sEH activity assay provided a convenient method for screening human epoxide hydrolase inhibitors. The assay utilized (3-Phenyl-oxiranyl)-acetic acid cyano-(6-methoxy-naphthalen-2-yl)-methyl ester (PHOME) as a substrate. […] The inhibitory function of the compounds on sEH activity was tested as detailed in the product manual from Cayman Chemical. Briefly, 3 mL sEH assay buffer (10×) was diluted with 27 mL HPLC-grade water. This final assay buffer, 25 mM bis-tris (pH 7.0), was used in the assay and for the dilution of the soluble epoxide hydrolase (sEH) enzyme. Amounts of 12 μL each of human and mouse recombinant sEH were thawed on ice. Prior to assaying, 588 μL cold assay buffer was added directly to the enzyme vial. An amount of 190 μL assay buffer and 5 μL solvent (40% DMSO in assay buffer) were added to the background wells. In the 100% initial activity wells, 185 μL assay buffer, 5 μL sEH, and 5 μL solvent were added. In inhibitor wells, 185 μL assay buffer, 5 μL solution of the synthesized compounds, and 5 μL of recombinant enzyme solution were added.
Average fluorescence (AF) of the background wells and 100% initial activity in the wells and of each of the inhibitors were determined. The background AF was subtracted from the 100% initial activity and inhibitor AFs. The % sEH activity is calculated as (inhbitited AF/% 100 initial activity) × 100.
Multiple concentrations of the inhibitors were tested followed by plotting of the percent activity as a function of inhibitor concentration to determine the IC50 values.
With O=C(NC12CC3CC(CC(C3)C1)C2)NS(=O)(=O)c1ccc(C(F)(F)F)cc1 [Compound 4c, N-((adamantan-1-yl)carbamoyl)-4-(trifluoromethyl)benzenesulfonamide] the “Human sEH % Inhibition” value was 34.06%. CC(C)(C)c1ccc(S(=O)(=O)NC(=O)NC23CC4CC(CC(C4)C2)C3)cc1 [Compound 4d] was tested, and the “Human sEH % Inhibition” value was 32.7%. In the case of O=C(NC12CC3CC(CC(C3)C1)C2)NS(=O)(=O)c1cccc(OC(F)(F)F)c1 [Compound 4g, N-((adamantan-1-yl)carbamoyl)-3-(trifluoromethoxy)benzenesulfonamide], the “Human sEH % Inhibition” value is reported as 1.65% and the “human sEH inhibitory activity (in words)” value is reported as “sEH inhibition decreased to a significant extent”. O=C(NC12CC3CC(CC(C3)C1)C2)NS(=O)(=O)c1ccccc1OC(F)(F)F [Compound 4h, N-((adamantan-1-yl)carbamoyl)-2-(trifluoromethoxy)benzenesulfonamide] was tested, and the “Human sEH % Inhibition” value was 6.28% and the “human sEH inhibitory activity (in words)” value was “sEH inhibition decreased to a significant extent”. In the case of N#Cc1ccc(S(=O)(=O)NC(=O)NC23CC4CC(CC(C4)C2)C3)cc1 [Compound 4i, N-((adamantan-1-yl)carbamoyl)-4-cyanobenzenesulfonamide], the “Human sEH % Inhibition” value is reported as 19.36%. For CC(C)(C)c1ccc(S(=O)(=O)NC(=S)NC23CC4CC(CC(C4)C2)C3)cc1 [Compound 6b, N-((adamantan-1-yl)carbamothioyl)-4-(tert-butyl)benzenesulfonamide], the “Human sEH % Inhibition” value was 1.80%. COc1ccc(S(=O)(=O)NC(=S)NC23CC4CC(CC(C4)C2)C3)cc1 [Compound 6c, N-((adamantan-1-yl)carbamothioyl)-4-methoxybenzenesulfonamide] was tested, and the “Human sEH % Inhibition” value was 2.50%. With CS/C(=N\S(=O)(=O)c1ccc(OC(F)(F)F)cc1)NC12CC3CC(CC(C3)C1)C2 [Compound 7] the “Human sEH % Inhibition” value was 32.83%. N/C(=N\S(=O)(=O)c1ccc(OC(F)(F)F)cc1)NC12CC3CC(CC(C3)C1)C2 [Compound 8a] was tested, and the “Human sEH % Inhibition” value was 40.19%. With CN/C(=N\S(=O)(=O)c1ccc(OC(F)(F)F)cc1)NC12CC3CC(CC(C3)C1)C2 [Compound 8b] the “Human sEH % Inhibition” value was 13.06%. In the case of CNN/C(=N\S(=O)(=O)c1ccc(OC(F)(F)F)cc1)NC12CC3CC(CC(C3)C1)C2 [Compound 9b], the “Human sEH % Inhibition” value is reported as 9.83%. With O=S(=O)(/N=C(\NNc1ccccc1)NC12CC3CC(CC(C3)C1)C2)c1ccc(OC(F)(F)F)cc1 [Compound 9c] the “Human sEH % Inhibition” value was 4.71%. For CN(C)N/C(=N\S(=O)(=O)c1ccc(OC(F)(F)F)cc1)NC12CC3CC(CC(C3)C1)C2 [Compound 9d], the “Human sEH % Inhibition” value was 7.65%. With Cc1ccc(S(=O)(=O)NC(=O)NC23CC4CC(CC(O)(C4)C2)C3)cc1 [Compound 10a, N-((3-hydroxyadamantan-1-yl)carbamoyl)-4-methylbenzenesulfonamide] the “Human sEH % Inhibition” value was 22.47%. In the case of O=C(NC12CC3CC(CC(O)(C3)C1)C2)NS(=O)(=O)c1ccc(C(F)(F)F)cc1 [Compound 10b, N-((-3-hydroxyadamantan-1-yl)carbamoyl)-4-(trifluoromethyl)benzenesulfonamide], the “Human sEH % Inhibition” value is reported as 21.26%. CC(C)(C)c1ccc(S(=O)(=O)NC(=O)NC23CC4CC(CC(O)(C4)C2)C3)cc1 [Compound 10c, 4-(tert-butyl)-N-((-3-hydroxyadamantan-1-yl)carbamoyl)benzenesulfonamide] was tested, and the “Human sEH % Inhibition” value was 3.08%. In the case of O=C(NC12CC(C1)C2)NS(=O)(=O)c1ccc(OC(F)(F)F)cc1 [Compound 11a, N-(bicyclo [1.1.1]pentan-1-ylcarbamoyl)-4-(trifluoromethoxy)benzenesulfonamide], the “Human sEH % Inhibition” value is reported as 4.28%. With N#CC12CC(NC(=O)NS(=O)(=O)c3ccc(OC(F)(F)F)cc3)(C1)C2 [Compound 11b, N-((3-cyanobicyclo [1.1.1]pentan-1-yl)carbamoyl)-4-(trifluoromethoxy)benzenesulfonamide] the “Human sEH % Inhibition” value was 7.47%.

From PMC11242993, “Evaluation of the Therapeutic Potential of Sulfonyl Urea Derivatives as Soluble Epoxide Hydrolase (sEH) Inhibitors” (Molecules, 2024)
